Measured values from paper PMC6429710, “Structure–activity relationships in a series of antiplasmodial thieno[2,3-b]pyridines” (Malaria Journal, 2019).
Values after ≈ are worked out from the molar mass of the structure shown. Read-outs that look alike come from different tables or passages of the source.

What was measured:
[1] = tested on: asexual erythrocytic stages of transgenic NF54-luc P. falciparum; assay: Luciferase-based viability screening for antiplasmodial activity; format: cell-based, Plasmodium falciparum; conditions: for % inhibition ± SD, PfNF54-Luc at 3 µM: 3 µM test compound, luciferase readout; for IC50: read-out: IC50 [µM], PfNF54-Luc
Experimental: For the luciferase-based viability assays, asexual erythrocytic stages of transgenic NF54-luc P. falciparum were used. These parasites constitutively express high luciferase levels. The parasites were cultured as described previously. Parasite cultures with parasitaemia of 0.5–1% were dispensed in triplicate into white 96-well flat-bottom plates (each well contains 250 µL) (NUNC, Roskilde, Denmark) and incubated in the presence of 3 µM test compounds for 48 h (37 °C, 90% N2, 5% CO2, and 5% O2). 0.01% DMSO was included in the untreated infected RBC cultures as negative control, since the compounds stock initially was diluted in DMSO and each treatment well also contained 0.01% DMSO. Subsequently, 100 µL RPMI1640 media was removed from each well and a 100 µL volume of the Bright-Glo® substrate solution was added to each well. The resultant cleavage product of the reaction, light, was measured using a […] luminometer (Thermo), to ascertain viable parasites. Untreated cultures were used as negative controls and to calculate the inhibition rate (0% inhibition of parasite growth). Experiments were performed in triplicate and were repeated as a whole at least twice. Blasticidin (Sigma-Aldrich, St. Louis, MO, USA), used for selection of transfected parasites, was included as a positive control on each plate and gave > 90% inhibition of parasite growth at concentration 2 µg/mL. […] For active compounds IC50 values were determined from dose–response curves. Calculation of parasite growth inhibition, of the IC50 values and statistical analysis were carried out using GraphPad Prism Version 6.0b (GraphPad Software, Inc. San Diego, CA).

[2] = biological target: HsGSK-3 (Homo sapiens, UniProt P49841); assay: Kinase-Glo Plus assay for inhibition of HsGSK-3; format: biochemical; conditions: 6 µM ATP; mean of three determinations, range in brackets
Chain of HsGSK-3 (P49841 whole entry): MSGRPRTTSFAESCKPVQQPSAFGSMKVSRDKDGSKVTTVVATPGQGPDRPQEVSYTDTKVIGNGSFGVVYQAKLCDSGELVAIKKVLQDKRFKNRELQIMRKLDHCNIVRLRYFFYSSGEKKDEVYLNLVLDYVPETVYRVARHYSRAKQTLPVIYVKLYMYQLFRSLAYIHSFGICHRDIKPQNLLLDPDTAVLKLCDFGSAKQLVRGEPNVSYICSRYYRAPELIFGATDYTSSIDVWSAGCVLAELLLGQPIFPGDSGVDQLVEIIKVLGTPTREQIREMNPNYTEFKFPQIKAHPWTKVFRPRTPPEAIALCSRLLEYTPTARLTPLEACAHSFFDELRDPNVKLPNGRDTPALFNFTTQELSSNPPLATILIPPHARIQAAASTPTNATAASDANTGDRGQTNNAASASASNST
Experimental: Kinase reaction mix was transferred to a solid white 384 well plate (NUNC, Thermo Scientific) and kinase reaction was stopped by adding 5 μL RT Kinase-Glo reagent. After 10 min luminescence was measured in an EnVision multilabel plate reader (Perkin Elmer, integration time 0.5 s/well). […] All samples were normalized to a negative control (reaction without kinase). Data points were plotted into Graphpad Prism, normalized to a DMSO control and IC50 values were calculated using nonlinear regression.

[3] = biological target: T1, PfGSK-3 (Plasmodium falciparum, UniProt O77344); assay: biochemical; format: biochemical; conditions: for IC50: 6 µM ATP, mean of three determinations, range in brackets, read-out: IC50 [µM], PfGSK-3 (Kinase Glo Plus)
T1 construct: 6xHis; made in house; host or cells: Escherichia coli C41
T1 sequence (O77344 1-440): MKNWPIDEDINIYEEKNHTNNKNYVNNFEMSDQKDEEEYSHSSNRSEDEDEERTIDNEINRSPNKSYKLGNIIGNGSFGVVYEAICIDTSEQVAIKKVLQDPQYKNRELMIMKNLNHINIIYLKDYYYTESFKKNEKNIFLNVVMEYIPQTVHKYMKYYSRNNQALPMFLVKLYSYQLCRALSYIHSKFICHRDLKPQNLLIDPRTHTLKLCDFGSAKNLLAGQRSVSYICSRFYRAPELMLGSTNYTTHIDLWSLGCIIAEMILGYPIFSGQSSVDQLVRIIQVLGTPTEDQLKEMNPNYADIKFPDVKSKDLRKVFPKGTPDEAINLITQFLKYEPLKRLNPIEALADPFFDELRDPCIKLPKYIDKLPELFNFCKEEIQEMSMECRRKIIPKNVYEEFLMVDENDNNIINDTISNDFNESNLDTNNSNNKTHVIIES
Experimental: PfGSK-3 was cloned into pOPIN F expression vector [41] using ligation independent cloning (InFusion, Takara Clontech). Expression vector was transformed into Escherichia coli C41 and expression of recombinant PfGSK3-6xHis was induced by incubation with 1 mM IPTG at 16 °C overnight.
Kinase activity was measured using Kinase-Glo Plus Luminescent Kinase Assay (Promega). 20 ng recombinant GSK-3 were incubated for 30 min at 30 °C in the presence of 12 μM GS-1 peptide substrate ([…]pSEDEEE, pS stands for phosphorylated serine, Biaffin GmbH & Co KG/proteinkinase.de) and 6 μM ATP (ultra pure, Promega) in a total volume of 5 μL kinase reaction buffer (40 mM Tris/HCl pH 7.5; 20 mM MgCl2; 0.1 mg/mL BSA). Kinase reaction mix was transferred to a solid white 384 well plate (NUNC, Thermo Scientific) and kinase reaction was stopped by adding 5 μL RT Kinase-Glo reagent. After 10 min luminescence was measured in an EnVision multilabel plate reader (Perkin Elmer, integration time 0.5 s/well). […] All samples were normalized to a negative control (reaction without kinase). Data points were plotted into Graphpad Prism, normalized to a DMSO control and IC50 values were calculated using nonlinear regression.

[4] = tested on: asexual erythrocytic stages of transgenic NF54-luc P. falciparum; design: method as in PMID 23214499; conditions: prototype compound 1; read-out: IC50 [µM], PfNF54-Luc; cited from earlier work
[5] = Kinetic solubility by laser nephelometry; format: physicochemical; conditions: kinetic from dmso stock, aqueous phosphate buffer pH 7.4, 1% DMSO, 25 °C, mean ± standard deviation, read-out: S0 pH 7.4, exp (kinetic solubility)
Experimental: Kinetic solubility indicates the solubility of the most rapidly precipitating form. Kinetic solubilities of 1 and 4h were determined by laser nephelometry using the […] nephelometer (BMG LabTech, Ortenberg, Germany) and F-bottom transparent 96-well plates. The instrument uses red laser light (635 nm, 80% intensity), which passes through the 96-well plate and which is scattered by turbid suspensions. Each compound was measured six times at 25 °C by preparing three independent stock solutions in concentrations of 5 to 10 mM in DMSO. From each stock solution two independent dilution series were prepared. Based on preliminary experiments, dilution concentrations were chosen such that at least five to six concentrations below and above the expected point of precipitation were recorded. To the 96-well plate containing 198 μL aqueous phosphate buffer at pH 7.4, 2 μL of each dilution sample in DMSO was added and shaken for 10 s. at 700 rpm (double orbital). […] The pH was adjusted by adding sulfuric acid. First, the plates were scanned without content to quantify the background, which was later subtracted from the obtained values of each individual well. As blank, 2 μL of neat DMSO was added to the phosphate buffer. Close to the point of precipitation, particle concentration can be assumed to be proportional to the intensity of scattered light. […]

[6] = tested on: HEK293T cells; assay: Cytotoxicity assay on HEK293 cells (PrestoBlue viability); format: cell-based, human
Experimental: HEK293T cells were seeded into a solid black flat bottom 96 well plate (2.5 × 10^4 cells/well) in 200 μL Dulbecco Modified Eagle Medium (DMEM) supplemented with 10% fetal bovine serum and 1% Pen/Strep (final concentration of 100 U/mL Penicillin and 100 μg/mL Streptomycin). Cells were incubated at 37 °C under 5% CO2. After 18 h the supernatant was removed and fresh DMEM containing serial dilutions of compounds was added. Compounds were solubilized in DMSO (final DMSO concentration in HEK293T culture was 0.5%.) Wells containing 0.5% DMSO served as a negative control. Plates were incubated for further 48 h at 37 °C under 5% CO2. To monitor cell viability the supernatant was removed and cells were incubated with 200 μL 10% PrestoBlue (Invitrogen) in PBS at 37 °C. After 30 min fluorescence (λex = 560 nm, λem = 590 nm) was measured in an EnVision multilable plate reader (Perkin Elmer, integration time 0.1 s/well). Data points were plotted into Graphpad Prism, normalized to the DMSO control and IC50 values were calculated using nonlinear regression.

[7] = from dose-response curves, 48 h

SMILES | % inhibition ± SD, PfNF54-Luc at 3 µM ([1]; 48 h) | IC50 [1, 7] | further results
N#Cc1c(N)nc2sc(C(=O)c3cccc(Cl)c3)c(N)c2c1-c1ccc(Cl)cc1Cl [2a] | 25.7 ± 3.5% | 6.2 µM | 
N#Cc1c(N)nc2sc(C(=O)c3cccc(Cl)c3)c(N)c2c1-c1ccc(F)cc1Cl [2b] | 28.1 ± 3.3% | 6.1 µM | 
Cc1ccc(-c2c(C#N)c(N)nc3sc(C(=O)c4cccc(Cl)c4)c(N)c23)c(Cl)c1 [2d] | 12.4 ± 2.4% |  | 
N#Cc1c(N)nc2sc(C(=O)c3cccc(Cl)c3)c(N)c2c1-c1ccc(O)cc1Cl [2e] | 0.2 ± 2.5% |  | 
COc1ccc(-c2c(C#N)c(N)nc3sc(C(=O)c4cccc(Cl)c4)c(N)c23)c(Cl)c1 [3a] | 33.2 ± 3.2% | 12.2 µM | 
CCOc1ccc(-c2c(C#N)c(N)nc3sc(C(=O)c4cccc(Cl)c4)c(N)c23)c(Cl)c1 [3b] | 14.5 ± 1.3% |  | 
N#Cc1c(N)nc2sc(C(=O)c3cccc(Cl)c3)c(N)c2c1-c1ccc(OCc2ccccc2)cc1Cl [3c] | 12.8 ± 4.9% |  | 
N#Cc1c(N)nc2sc(C(=O)c3cccc(Cl)c3)c(N)c2c1-c1ccc(OCCO)cc1Cl [3d] | 25.6 ± 3.3% | 20 µM | 
N#Cc1c(N)nc2sc(C(=O)c3cccc(Cl)c3)c(N)c2c1-c1ccc(OCC(O)CO)cc1Cl (centres unmarked) [3f] | 14.7 ± 1.8% |  | 
N#Cc1c(N)nc2sc(C(=O)c3cccc(Cl)c3)c(N)c2c1-c1ccc(OCC(=O)O)cc1Cl [3g] | 31.3 ± 1.1% |  | 
CN(C)c1ccc(-c2c(C#N)c(N)nc3sc(C(=O)c4cccc(Cl)c4)c(N)c23)c(Cl)c1 [4a] | 29.9 ± 5.6% | 5.7 µM | 
N#Cc1c(N)nc2sc(C(=O)c3cccc(Cl)c3)c(N)c2c1-c1ccc(N2CCCC2)cc1Cl [4c] | 33.0 ± 2.4% |  | 
N#Cc1c(N)nc2sc(C(=O)c3cccc(Cl)c3)c(N)c2c1-c1ccc(N2CCCCC2)cc1Cl [4d] | 39.1 ± 1.1% | 5 µM | 
N#Cc1c(N)nc2sc(C(=O)c3cccc(Cl)c3)c(N)c2c1-c1ccc(N2CCOCC2)cc1Cl [4e] | 20.2 ± 4.8% |  | 
CN(CCNC(=O)OC(C)(C)C)c1ccc(-c2c(C#N)c(N)nc3sc(C(=O)c4cccc(Cl)c4)c(N)c23)c(Cl)c1 [4f] | 67.1 ± 2.7% | 2.5 µM | 
CC(C)(C)OC(=O)N1CCN(c2ccc(-c3c(C#N)c(N)nc4sc(C(=O)c5cccc(Cl)c5)c(N)c34)c(Cl)c2)CC1 [4g] | 42.1 ± 2.9% | 3.8 µM | 
CN(CCN)c1ccc(-c2c(C#N)c(N)nc3sc(C(=O)c4cccc(Cl)c4)c(N)c23)c(Cl)c1.Cl [4i] | 8.1 ± 3.3% |  | 
Cl.N#Cc1c(N)nc2sc(C(=O)c3cccc(Cl)c3)c(N)c2c1-c1ccc(N2CCNCC2)cc1Cl [4j] | 75.7 ± 1.5% | 1.5 µM | 
CCN(CC)c1ccc(-c2c(C#N)c(N)nc3sc(C(=O)c4cccc(Cl)c4)c(N)c23)c(Cl)c1 [(+)4b] |  |  | inhibition at 3 µM ([1]; Plasmodium falciparum, NF54, 48 h, read-out: % inhibition ± SD, PfNF54-Luc at 3 µM): 73 ± 1.2%; IC50 ([1]; Plasmodium falciparum, NF54, 48 h): 1.1 µM; IC50 [2]: > 100 µM; IC50 [3]: 39.6 µM
CCN(CC)c1ccc(-c2c(C#N)c(N)nc3sc(C(=O)c4cccc(Cl)c4)c(N)c23)c(Cl)c1 [(−)4b] |  |  | IC50 [3]: > 100 µM
CN(CC[C@H](N)CC(=O)N[C@H]1C=C[C@H](n2ccc(N)nc2=O)O[C@@H]1C(=O)O)C(=N)N [BS, Blasticidin, reference compound] | 99.3 ± 0.7% |  | inhibition of parasite growth (positive control) ([1]; 2 µg/mL, 48 h): > 90%
N#Cc1c(N)nc2sc(C(=O)c3cccc(Cl)c3)c(N)c2c1-c1ccccc1Cl [compound 1] |  |  | IC50 [4]: 5.5 µM; solubility kinetic at 10 s [5]: 1.5 ± 0.3 µM (≈ 0.659 µg/mL); SI (selectivity index) = IC50 HEK293T/IC50 PfNF54-Luc ([6]; HEK293T versus PfNF54-Luc): 6.4; IC50 ([6]; Homo sapiens, HEK-293T, cell viability, 48 h, mean of six determinations, range in brackets): 35.2 µM; IC50 [2]: 9.08 µM; IC50 [3]: 0.24 µM; selectivity index plasmodial versus human GSK-3 ([3]; Kinase Glo Plus assay, PfGSK-3 versus HsGSK-3): 38
